According to patent US20210198201A1, “Orally Active Melanocortin Receptor-4 Compounds” (Palatin Technologies, Inc., priority 2018, published 2021):

Experiments:
[1] = molecular target: T1, hMC5r (Homo sapiens, UniProt P33032); assay: cAMP assay hMC5r (human recombinant CHO cells, α-MSH reference); assay type: cell-based
T1 construct: expressed in transfected cells; host or cells: CHO
Experimental: (§1) Melanocortin receptor binding and function of Compound 7.1 was tested. Ki binding values (nM) were calculated utilizing the percent inhibit of the binding of iodine-125 labeled NDP-α-MSH against B16-F1 cells for mMC1r, and human recombinant CHO cells for hMC3r, hMC4r and hMC5r, with the inhibition constant calculated using the Cheng Prusoff equation. Functional results (EC50 and efficacy) were calculated utilizing cAMP assays with NDP-α-MSH for mMC1r, hMC3r and hMC4r, ACTH for hMC2r, and α-MSH for hMC5r for agonist measures, with the same target cells for melanocortin receptors mMC1r, hMC3r, hMC4r and hMC5r, and human recombinant Cloudman M3 cells for hMC2r.

[2] = tested on: Male mice homozygous for the obese spontaneous mutation, Lep^ob; assay: Oral administration in leptin-deficient obese mice, body weight; assay type: in vivo, mouse; details: 30 mg/kg twice daily for six days
Experimental: Male mice homozygous for the obese spontaneous mutation, Lep^ob, with resulting leptin protein deficiency, were individually housed with free access to feed and drinking water. All animals were sham-dosed twice daily for five days prior to initial drug administration, utilizing a vehicle dose of 3.2% mannitol and […] tris(hydroxymethyl)aminomethane at pH 7.4. On day 6 a cohort of the mice received compound 7.1 dissolved into the vehicle twice daily for six consecutive days at a dose of 30 mg/kg. Body weight of animals was measured daily, with data analyzed as the percent change from baseline of each individual animal, where baseline was defined as the average weight during the first three days of sham dosing. The averaged percent change from baseline of a vehicle group was then subtracted from each value to correct for continued weight gain or other study-wide factors. The change in body weight is shown in FIG. 3 starting on study day 1, the first day of administration of compound 7.1.

[3] = molecular target: T2, hMC3r (Homo sapiens, UniProt P41968); assay: cAMP assay hMC3r (human recombinant CHO cells, NDP-α-MSH reference); assay type: cell-based
T2 construct: expressed in transfected cells; host or cells: CHO
T2 sequence (P41968 whole entry): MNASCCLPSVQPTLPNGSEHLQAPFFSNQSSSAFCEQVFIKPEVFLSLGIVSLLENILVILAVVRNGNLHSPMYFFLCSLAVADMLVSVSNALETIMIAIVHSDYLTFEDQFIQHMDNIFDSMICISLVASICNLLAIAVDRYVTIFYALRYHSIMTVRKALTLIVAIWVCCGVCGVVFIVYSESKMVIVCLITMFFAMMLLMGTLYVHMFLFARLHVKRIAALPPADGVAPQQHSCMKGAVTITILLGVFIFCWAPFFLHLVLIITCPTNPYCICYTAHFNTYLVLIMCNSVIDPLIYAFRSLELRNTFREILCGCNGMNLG
Experimental: as §1

[4] = molecular target: T3, hMC2r (Homo sapiens, UniProt Q01718); assay: cAMP assay hMC2r (human recombinant Cloudman M3 cells, ACTH reference); assay type: cell-based
T3 construct: expressed in transfected cells; host or cells: Cloudman M3
T3 sequence (Q01718 whole entry): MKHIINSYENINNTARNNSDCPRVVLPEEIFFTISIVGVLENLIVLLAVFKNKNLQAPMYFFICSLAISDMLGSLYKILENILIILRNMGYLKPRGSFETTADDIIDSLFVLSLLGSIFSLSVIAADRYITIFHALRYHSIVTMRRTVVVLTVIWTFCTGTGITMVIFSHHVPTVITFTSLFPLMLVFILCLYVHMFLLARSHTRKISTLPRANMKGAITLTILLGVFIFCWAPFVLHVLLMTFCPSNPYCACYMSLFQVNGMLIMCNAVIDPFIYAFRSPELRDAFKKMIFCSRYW
T3 sequence (Q9D159 whole entry partner): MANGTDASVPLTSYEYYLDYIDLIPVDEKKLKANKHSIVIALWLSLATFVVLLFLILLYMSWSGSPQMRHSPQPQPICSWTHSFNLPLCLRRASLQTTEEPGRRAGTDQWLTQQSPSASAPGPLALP
Experimental: as §1

[5] = molecular target: MC4r (Homo sapiens, UniProt P32245); assay: cAMP functional study in human MC4r expression system approximating maximal physiologic receptor densities; assay type: cell-based; parameters: host or cells: TREx-293; details: low receptor density human MC4r system
MC4r, sequence (P32245 whole entry): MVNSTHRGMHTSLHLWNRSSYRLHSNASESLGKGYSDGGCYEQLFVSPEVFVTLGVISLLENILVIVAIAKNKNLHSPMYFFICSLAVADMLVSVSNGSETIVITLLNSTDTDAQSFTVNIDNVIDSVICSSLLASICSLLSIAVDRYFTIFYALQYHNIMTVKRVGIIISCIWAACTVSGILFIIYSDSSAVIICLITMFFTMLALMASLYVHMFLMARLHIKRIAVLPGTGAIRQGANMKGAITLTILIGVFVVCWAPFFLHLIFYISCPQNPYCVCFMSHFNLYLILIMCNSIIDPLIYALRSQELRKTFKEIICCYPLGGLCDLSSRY
Experimental: Assay for Agonist Activity. Accumulation of intracellular cAMP was examined as a measure of the ability of the peptides of the present invention to elicit a functional response in HEK-293 cells that express MC4-R. Confluent HEK-293 cells that express recombinant hMC4-R were detached from culture plates by incubation in enzyme-free cell dissociation buffer. Dispersed cells were suspended in Hanks' Balanced Salt Solution containing 10 mM HEPES (pH 7.5), 1 mM MgCl2, 1 mM glutamine, 0.5% albumin and 0.3 mM 3-isobutyl-1-methyl-xanthine (IBMX), a phosphodiesterase inhibitor. The cells were plated in 96-well plates at a density of 0.5×10^5 cells per well and pre-incubated for 10 minutes. Cells were exposed for 15 minutes at 37° C. to peptides of the present invention dissolved in DMSO (final DMSO concentration of 1%) at a concentration range of 0.05-5000 nM in a total assay volume of 200 μL. NDP-α-MSH was used as the reference agonist. cAMP levels were determined by an HTRF® cAMP cell-based assay system from Cisbio Bioassays utilizing cryptate-labeled anti-cAMP and d2-labeled cAMP, with plates read on a Perkin-Elmer Victor plate reader at […]. Data analysis was performed by nonlinear regression analysis with Graph-Pad Prism® software. The maximum efficacies of the test peptides of the present invention were compared to that achieved by the reference melanocortin agonist NDP-αMSH.
Low Receptor Density Systems. In functional studies preferably a human MC4r expression system approximating maximal human physiologic receptor densities is employed. In one aspect, a tetracycline-regulated mammalian expression system that uses regulatory elements from the E. coli Tn10-encoded tetracycline (Tet) resistance operon was employed (T-REx™ System, Invitrogen). By use of the T-REx™ System, expression of the gene of interest, the human MC4-R gene, was repressed in the absence of tetracycline or doxycycline and induced in the presence of tetracycline or doxycycline, with receptor density being dependent on the concentration of tetracycline or doxycycline. See generally Yao F. et al: Tetracycline repressor, tetR, rather than the tetR-mammalian cell transcription factor fusion derivatives, regulates inducible gene expression in mammalian cells. Hum. Gene Ther. 9:1939-1950 (1998), incorporated here by reference. Regulation was based on the binding of tetracycline or doxycycline, a derivative of tetracycline, to the Tet repressor and derepression of the promoter controlling expression of the human MC4-R gene. In general tetracycline or related regulators, such as tetracycline-derivatives, may be used to induce the gene expression. An inducible expression plasmid for expression of human MC4-R gene under the control of the strong human cytomegalovirus immediate-early (CMV) promoter and two tetracycline operator 2 (TetO2) sites was employed, together with a regulatory plasmid, pcDNA6/TR, which encodes the Tet repressor (TetR) under the control of the human SV40 promoter. Thus, expression of the human MC4-R gene from the inducible expression vector was controlled by the strong CMV promoter into which 2 copies of the tet operator 2 (TetO2) sequence had been inserted in tandem. The TetO2 sequences consisted of 2 copies of 19-nucleotide sequence separated by a 2 base pair spacer. Each 19 nucleotide TetO2 sequence served as the binding site for 2 molecules of the Tet repressor. The expression vector pcDNA4/TO/MC4R was introduced into TREx-293 (Invitrogen, R710-07), a cell line stably expressing the tetracycline repressor pcDNA6/TR using lipofectamin 2000 reagent (Invitrogen, 11668-019). Alternatively, both the expression vector and repressor are introduced into host cells by standard transformation or transfection methods.

[6] = molecular target: T1, hMC5r; assay: Binding of iodine-125 labeled NDP-α-MSH, human recombinant CHO cells, hMC5r
Experimental: as §1

[7] = molecular target: T4, mMC1r (Mus musculus, UniProt Q01727); assay: cAMP assay mMC1r (B16-F1 cells, NDP-α-MSH reference); assay type: cell-based
T4 construct: endogenous in cells; host or cells: B16-F1
T4 sequence (Q01727 whole entry): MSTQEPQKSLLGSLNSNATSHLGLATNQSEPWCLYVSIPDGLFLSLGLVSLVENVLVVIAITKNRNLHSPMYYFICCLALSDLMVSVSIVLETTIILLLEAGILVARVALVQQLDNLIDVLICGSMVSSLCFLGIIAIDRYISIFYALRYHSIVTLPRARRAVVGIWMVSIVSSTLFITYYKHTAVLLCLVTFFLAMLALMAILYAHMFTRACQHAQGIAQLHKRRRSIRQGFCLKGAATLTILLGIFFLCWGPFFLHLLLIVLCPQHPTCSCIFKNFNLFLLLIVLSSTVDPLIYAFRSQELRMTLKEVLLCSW
Experimental: as §1

T1 sequence (P33032 whole entry): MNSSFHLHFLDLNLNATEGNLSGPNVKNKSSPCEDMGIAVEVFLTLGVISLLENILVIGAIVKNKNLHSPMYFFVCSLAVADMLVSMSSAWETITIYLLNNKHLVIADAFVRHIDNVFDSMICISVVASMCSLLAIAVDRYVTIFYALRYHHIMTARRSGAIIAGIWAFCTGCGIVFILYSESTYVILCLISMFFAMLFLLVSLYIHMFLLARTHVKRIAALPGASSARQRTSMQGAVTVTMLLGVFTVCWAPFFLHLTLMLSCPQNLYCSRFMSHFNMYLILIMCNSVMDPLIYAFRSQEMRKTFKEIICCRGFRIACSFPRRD

CC(=O)N1CCC(N(CC(C)C)N2CCN(C(=O)[C@@H](Cc3ccc(Cl)cc3)NC(=O)C(C)(C)N)CC2)CC1 [Compound 7.1, N-[(1R)-2-[4-[(1-acetyl-4-piperidyl)-isobutyl-amino]piperazin-1-yl]-1-[(4-chlorophenyl)methyl]-2-oxo-ethyl]-2-amino-2-methyl-propanamide]
EC50 [1]: > 1000 nM
decrease in body weight compared to vehicle controls [2]: 4.8%
EC50 [3]: > 1000 nM
EC50 [4]: > 1000 nM
EC50 [5]: 23 nM
Emax ([5]; read-out: relative efficacy, compared to NDP-α-MSH): 33%
Ki [6]: 1200 nM
EC50 [7]: 460 nM
